Experimental data reported in article PMC12132910, “A Novel Inhibitor against the Bromodomain Protein 1 of the Malaria Pathogen Plasmodium Falciparum” (Chemmedchem, 2025).
Values joined by “and” are separate entries in the source; they are usually repeats but may differ in a detail not shown here. Equal entries are not always repeated.

The molecules below were run on P. falciparum K1 (multidrug resistant) (assay: Malaria SYBR green I based fluorescence assay, dose response, K1). Settings: Plasmodium falciparum, K1, 72 h, read-out: EC50 K1.
Type: cell-based
Method: (§1) The BRDi compounds had modest activity against all three strains (Table 2 ). […]
resistant strain K1, MRA-159, contributed by Dennis E. Kyle. […]
(§2) Shield1. Parasites were propagated in human red blood cells (blood group 0+) obtained from the Bavarian Red Cross service (BRK) and cultivated under standard conditions in RPMI 1640 (ThermoFisher) supplemented with 0.5% Albumax
(§3) (ThermoFisher), 20 µg/ml Gentamycin, 25 mM Hepes (pH 7.3), and 0.02% hypoxanthine in an atmosphere of 1% O2, 5% CO2, 94% N2.
(§4) Malaria SYBR green I based fluorescence assay
(§5) SYBR Green I based fluorescence assays to determine dose-response curves were performed essentially as described previously (Leidenberger et al., 2017). Briefly, parasite cultures were diluted to 1% ring stage parasitemia and cultivated at 2.5% haematocrit in 96 well plates in the presence of serial half-log dilutions of the compounds ranging from 100 µM to 10 nM or DMSO (dimethyl sulfoxide) corresponding to the highest concentration (0.1%). Chloroquine (C6628, Sigma-Aldrich) was used as control that was not expected to target PfBDP1 and was titrated from 5 µM to 1.6 nM. After 72 hours, cultures were lysed in lysis buffer (20 mM Tris-HCl, 5 mM EDTA, 0.008% saponin (Sigma-Aldrich), 0.08% Triton X (Sigma-Aldrich), 1:10,000 SYBR Green I dye (Invitrogen)) and fluorescence was measured in a Fluoroskan Ascent FL reader (excitation: 485 nm, emission: 530 nm). […]

SMILES	EC50 [µM]
Cc1cc(C(N)=O)cc(C)c1-c1[nH]c(C)c2c1CCCCC2=O [RMM25, 3,5-Dimethyl-4-(3-methyl-4-oxo-2,4,5,6,7,8-hexahydrocyclohepta[c]pyrrol-1-yl)benzamide]	7.35

These molecules were tested against PfBDP1-BRD (Plasmodium falciparum, UniProt Q8IJ72) (assay: Isothermal titration calorimetry (ITC) with PfBDP1-BRD). Settings: 25 °C, PBS pH 7.4, read-out: K D.
Sequence of PfBDP1-BRD (Q8IJ72 entry or part of it): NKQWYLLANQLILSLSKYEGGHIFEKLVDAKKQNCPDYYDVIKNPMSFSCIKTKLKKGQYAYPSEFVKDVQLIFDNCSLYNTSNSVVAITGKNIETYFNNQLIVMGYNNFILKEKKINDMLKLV
Type: binding
Method: and incubated at 37 °C and 180 rpm until an OD600 of ~2.5. The culture was cooled to 18 °C, induced with 0.2 mM IPTG, and incubated for 16 hours overnight. Cells were harvested by centrifugation (Beckman Coulter Avanti J-26 XP, Rotor: JLA 8.100 Rotor) at 5000 x g for 15 min at 4 °C.
The cell pellet was resuspended in PBS (1:3 w/v). The suspension was lysed by sonication (Branson Digital Sonifier 250; 15 min, 3 sec pulse, 10 sec pause, amplitude 70%) at 4 °C. Insoluble debris was removed by centrifugation (Beckmann Coulter Avanti-J30 I, Rotor: 30.50Ti) at 80,000 x g for 45 min at 4 °C. The lysate was then sterile-filtered (0.45 µm) and purified by […] affinity chromatography. The protein was cleaved using either PreScission Protease (PfBDP1-BRD-construct) or TEV Protease (PvBDP1-BRD-construct) separating the bromodomain from the fusion protein. Further separation of the cleaved GST tag and any remaining GST fusion protein was achieved by an additional round of GST affinity chromatography.
Specifically, we used Glutathione Sepharose High Performance (HP) resin (Cytiva, 17-5279-01). A 25 mL batch of resin was self-packed into a column, equilibrated with PBS, and used to purify GST-tagged proteins. The cleaved bromodomain, which […]
Following this step, the bromodomain protein was further purified by size exclusion chromatography using a HiLoad 26/600 Superdex 75 pg column (GE Healthcare).
Isothermal Titration Calorimetry (ITC)
Affinity was measured using a MicroCal VP-ITC microcalorimeter (Malvern Instruments). Measurements were performed at 25 °C with the ligand (0.04 mM) in PBS (Phosphate buffer saline; 137 mM NaCl, 10 mM phosphate, 2.7 mM KCl; pH 7.4) buffer present in the cell and the protein (0.4 mM) injected via a stirred syringe (351 revolutions per minute) in 5 min intervals (1 injection of 6 µL and 20 injections of 13.5 µL). Solutions were degassed prior to measurements. The first injection was discarded to account for any potential diffusion during equilibration. Automated baseline correction and peak integration were conducted using NITPIC[1,2]. Analysis, fitting, and thermodynamic calculations were performed using a binary interaction model in SEDPHAT[3], and plots were generated using GUSSI[4]. Confidence intervals were calculated using the “Automatic Confidence Interval Search with Projection” method in SEDPHAT. During the confidence level search, the confidence level was set to 0.99, and Simplex optimization was applied prior to Marquardt-Levenberg at each step. Error Surface Projection was performed by alternating between Simplex and Marquardt-Levenberg algorithms until convergence was achieved.
Supporting Table S1. Amino acid sequences of proteins used in this […]
PfBDP1-BRD Construct (Uniprot: Q8IJ72; Residues: 333-456)
The construct includes an N-terminal GST-tag followed by a Prescission protease cleavage site. After cleavage, the purified protein retains an additional […] sequence at […]
the N-terminus, which originates from the vector's multiple cloning site. […]

SMILES	Kd
Cc1[nH]c(-c2cccc(N)c2)c2c1C(=O)CCCC2 [MPM2]	6.7 µM and 6.74 µM
Cc1[nH]c(-c2ccccc2)c2c1C(=O)CCCC2 [MPM3, 3-Methyl-1-phenyl-5,6,7,8-tetrahydrocyclohepta[c]pyrrol-4(2H)-one]	10 µM and 10.4 µM
Cc1[nH]c(-c2cccc(C(N)=O)c2)c2c1C(=O)CCCC2 [MPM8]	7.45 µM
Cc1[nH]c(-c2ccccc2Cl)c2c1C(=O)CCCC2 [RMM1]	5.8 µM and 5.81 µM
Cc1ccccc1-c1[nH]c(C)c2c1CCCCC2=O [RMM2]	3.9 µM and 3.94 µM
CCc1ccccc1-c1[nH]c(C)c2c1CCCCC2=O [RMM3]	9.17 µM
Cc1[nH]c(-c2ccccc2C(F)(F)F)c2c1C(=O)CCCC2 [RMM4]	2.9 µM and 2.94 µM
COc1ccccc1-c1[nH]c(C)c2c1CCCCC2=O [RMM5]	7.13 µM
Cc1cccc(-c2[nH]c(C)c3c2CCCCC3=O)c1 [RMM6, 3-Methyl-1-(m-tolyl)-5,6,7,8-tetrahydrocyclohepta[c]pyrrol-4(2H)-one]	6.2 µM and 6.22 µM
Cc1[nH]c(-c2cccc([N+](=O)[O-])c2)c2c1C(=O)CCCC2 [RMM7, 3-Methyl-1-(3-nitrophenyl)-5,6,7,8-tetrahydrocyclohepta[c]pyrrol-4(2H)-one]	16.9 µM
CNc1cccc(-c2[nH]c(C)c3c2CCCCC3=O)c1 [RMM8, 3-Methyl-1-(3-(methylamino)phenyl)-5,6,7,8-tetrahydrocyclohepta[c]pyrrol-4(2H)-one]	9.16 µM
Cc1[nH]c(-c2cccc(N(C)C)c2)c2c1C(=O)CCCC2 [RMM9, 1-(3-(dimethylamino)phenyl)-3-methyl-5,6,7,8-tetrahydrocyclohepta[c]pyrrol-4(2H)-one]	8.03 µM
CC(=O)Nc1cccc(-c2[nH]c(C)c3c2CCCCC3=O)c1 [RMM10]	6.96 µM
Cc1[nH]c(-c2cccc(NS(C)(=O)=O)c2)c2c1C(=O)CCCC2 [RMM11]	4.7 µM
Cc1[nH]c(-c2cccc(S(N)(=O)=O)c2)c2c1C(=O)CCCC2 [RMM13]	4.9 µM and 4.93 µM
Cc1ccc(-c2[nH]c(C)c3c2CCCCC3=O)cc1 [RMM14]	11.7 µM
Cc1[nH]c(-c2ccc(C(N)=O)cc2)c2c1C(=O)CCCC2 [RMM15]	4.49 µM
CNC(=O)c1ccc(-c2[nH]c(C)c3c2CCCCC3=O)cc1 [RMM16]	5.14 µM
Cc1[nH]c(-c2ccc(C(=O)N(C)C)cc2)c2c1C(=O)CCCC2 [RMM17]	42.4 µM
Cc1[nH]c(-c2ccc(C#N)cc2)c2c1C(=O)CCCC2 [RMM18]	4.54 µM
Cc1[nH]c(-c2ccc(S(N)(=O)=O)cc2)c2c1C(=O)CCCC2 [RMM19]	6.39 µM
Cc1ccc(NS(C)(=O)=O)cc1-c1[nH]c(C)c2c1CCCCC2=O [RMM20]	8.17 µM
Cc1[nH]c(-c2cccc(NS(C)(=O)=O)c2C)c2c1C(=O)CCCC2 [RMM21, N-(2-Methyl-3-(3-methyl-4-oxo-2,4,5,6,7,8-hexahydrocyclohepta[c]pyrrol-1-yl)phenyl)methanesulfonamide]	2.76 µM
Cc1cc(C#N)ccc1-c1[nH]c(C)c2c1CCCCC2=O [RMM22, 3-Methyl-4-(3-methyl-4-oxo-2,4,5,6,7,8-hexahydrocyclohepta[c]pyrrol-1-yl)benzonitrile]	2.34 µM
Cc1cc(C#N)cc(C)c1-c1[nH]c(C)c2c1CCCCC2=O [RMM24, 3,5-dimethyl-4-(3-methyl-4-oxo-2,4,5,6,7,8-hexahydrocyclohepta[c]pyrrol-1-yl)benzonitrile]	1.22 µM
Cc1cc(C(N)=O)cc(C)c1-c1[nH]c(C)c2c1CCCCC2=O [RMM25, 3,5-Dimethyl-4-(3-methyl-4-oxo-2,4,5,6,7,8-hexahydrocyclohepta[c]pyrrol-1-yl)benzamide]	0.896 µM

Same assay, conditions: K D, 25 °C, PBS pH 7.4

SMILES	Kd [µM]
Cc1[nH]c(-c2cc(N)ccc2Cl)c2c1C(=O)CCCC2 [MPM6, reference compound]	4.53

Each molecule was assayed on P. falciparum NF54 (assay: Malaria SYBR green I based fluorescence assay, dose response, NF54). Settings: Plasmodium falciparum, blood stage culture, 72 hours, mean (SD), 1 to 3 biological replicates.
Type: cell-based
Method: as §1, §2, §3, §4, §5

SMILES	EC50 [µM]
Cc1cc(C(N)=O)cc(C)c1-c1[nH]c(C)c2c1CCCCC2=O [RMM25, 3,5-Dimethyl-4-(3-methyl-4-oxo-2,4,5,6,7,8-hexahydrocyclohepta[c]pyrrol-1-yl)benzamide]	12.2

The molecules below were run on 3D7::PfBDP1HADD parasites (assay: Dose-response assay in conditional PfBDP1 knockdown parasites). Settings: 10 nM Shld1 compared to 500 nM Shld1, 72 h.
Type: cell-based, Plasmodium falciparum
Description: To validate whether the compounds indeed target the BRD of PfBDP1, we utilized a conditional KD system to modulate the expression levels of PfBDP1 in situ.^[ [15] ^] In the 3D7::PfBDP1HADD line, PfBDP1 is fused at its C‐terminus to a ligand‐regulatable FKBP destabilization domain (DD) that targets the fusion protein for proteasomal degradation but can be stabilized by the Shield1 ligand, and 3xHA epitope tags for detection ^11. […] In contrast, the EC50 of chloroquine was unchanged.
A) Western Blot analysis of 3D7::PfBDP1HADD parasites cultivated in the presence of Shield1 (Shld) in concentrations ranging from 0 to 500 nM over 72 h in duplicates. PfBDP1HADD was detected by anti‐HA antibodies. Histone 3 (H3) was probed as a loading control. […] Growth was determined relative to DMSO controls for each condition after 72 h of culture. N = 4 replicates. […] Binding of PfBDP1HA to target loci was calculated as enrichment relative to histone H3 ChIP performed in parallel. Shown are individual values and median of one representative experiment with technical duplicates. Paired t‐test, p = 0.0015. […]
resistant strain K1, MRA-159, contributed by Dennis E. Kyle. The NF54::PfBDP1HA parasite line was generated by transfection of NF54 parasites with the plasmid pSLI_PfBDP1_3xHA and selection linked integration of the construct in the presence of G418[21]. […]
as §4
SYBR Green I based fluorescence assays to determine dose-response curves were performed essentially as described previously (Leidenberger et al., 2017). […] After 72 hours, cultures were lysed in lysis buffer (20 mM Tris-HCl, 5 mM EDTA, 0.008% saponin (Sigma-Aldrich), 0.08% Triton X (Sigma-Aldrich), 1:10,000 SYBR Green I dye (Invitrogen)) and fluorescence was measured in a Fluoroskan Ascent FL reader (excitation: 485 nm, emission: 530 nm). […]

SMILES	change of sensitivity (dose-response, EC50) under partial PfBDP1 knockdown
Cc1cc(C(N)=O)cc(C)c1-c1[nH]c(C)c2c1CCCCC2=O [RMM25, 3,5-Dimethyl-4-(3-methyl-4-oxo-2,4,5,6,7,8-hexahydrocyclohepta[c]pyrrol-1-yl)benzamide]	moderately increased sensitivity
CCN(CC)CCCC(C)Nc1ccnc2cc(Cl)ccc12 (centres unmarked) [chloroquine, Chloroquine, reference compound]	unchanged

What follows are molecules tested on P. falciparum 3D7 (assay: Malaria SYBR green I based fluorescence assay, dose response, 3D7). Settings: Plasmodium falciparum, blood stage culture, 72 hours, mean (SD), 1 to 3 biological replicates.
Type: cell-based
Method: as §1, §2, §3, §4, §5

SMILES	EC50 [µM]
Cc1cc(C(N)=O)cc(C)c1-c1[nH]c(C)c2c1CCCCC2=O [RMM25, 3,5-Dimethyl-4-(3-methyl-4-oxo-2,4,5,6,7,8-hexahydrocyclohepta[c]pyrrol-1-yl)benzamide]	19
